# The source made the active and inactive calls. The rule behind the calls is not given here.
# What was measured:
# [1] = Binding affinity to Bcl2 G-quadraplex DNA (unknown origin) assessed as binding constant at 8 uM by Stern-Volmer plot analysis in the presence of KCl and NaCl
# [2] = Binding affinity to duplex ds20 DNA (unknown origin) assessed as binding constant at 8 uM by Stern-Volmer plot analysis in the presence of KCl and NaCl
# [3] = Binding affinity to duplex ds26 DNA (unknown origin) assessed as binding constant at 8 uM by Stern-Volmer plot analysis in the presence of KCl and NaCl
# [4] = Binding affinity to Bcl2 G-quadraplex DNA (unknown origin) assessed as melting temprature at 2 uM by circular dichroism spectroscopic analysis in the presence of KCl and NaCl
# [5] = Binding affinity to Bcl2 G-quadraplex DNA (unknown origin) assessed as melting temprature at 5 uM by circular dichroism spectroscopic analysis in the presence of KCl and NaCl
# Homo sapiens = species: Homo sapiens; assay: Binding affinity to duplex ds26 DNA (unknown origin) assessed as melting temprature at 12 uM by circular dichroism spectroscopic analysis in the presence of KCl and NaCl
# [6] = Ratio of binding affinity to Bcl2 G-quadruplex DNA (unknown origin) to binding affinity to duplex ds26 DNA (unknown origin)
# HEp-2 [7] = assay: Binding affinity to Bcl2 G-quadraplex DNA in human Hep2 cells assessed as reduction in Bcl-2 expression co-transfected in pRL-TK plasmid vector after 48 hrs by dual-luciferase reporter assay; type: cell-based
# HEp-2 [8] = assay: Binding affinity to Bcl2 G-quadraplex DNA in human Hep2 cells assessed as reduction in Bcl-2 gene levels by real-time PCR method; type: cell-based
# HEp-2 [9] = assay: Antiproliferative activity against human Hep2 cells measured up to 10 uM after 48 hrs by MTT assay; type: functional, cell-based
# [10] = Ratio of binding affinity to Bcl2 G-quadruplex DNA (unknown origin) to binding affinity to duplex ds20 DNA (unknown origin)
Ka [1],Ka [2],Ka [3],Tm [4],Tm [5],Tm (Homo sapiens),Ratio [6],Ratio [10],Structure (SMILES),Activity (HEp-2 [7]),Activity (HEp-2 [8]),Activity (HEp-2 [9])
4.29 ×10⁵ L/mol,0.28 ×10⁵ L/mol,0.66 ×10⁵ L/mol,56 °C,71 °C,68 °C,6.5,6.5,CN(C)CCOc1cc(NC(=O)c2cc(OCCN)cc(C(=O)Nc3cc(OCCN(C)C)c4ccccc4n3)n2)nc2ccccc12,Dose-dependent effect,Active,Active
6.97 ×10⁵ L/mol,1.36 ×10⁵ L/mol,1.52 ×10⁵ L/mol,–,–,–,4,4,NCCOc1cc(C(=O)Nc2cc(OCCN)c3ccccc3n2)nc(C(=O)Nc2cc(OCCN)c3ccccc3n2)c1,–,–,–
